Measurements as given in patent US10813356B2, “Herbicidal composition comprising cinmethylin and dimethenamid” (BASF Agro B.V., priority 2015, dated 2020).

How the values were obtained:
Settings in all cases: 20 DAT
THLAR = assay: Greenhouse preemergence herbicidal activity; type: in vivo, Thlaspi arvense
Procedure: (§1) The test plants have been seeded, separately for each species, in plastic containers in sandy loamy soil containing 5% of organic matter.
(§2) The containers were irrigated gently to promote germination and growth and subsequently covered with transparent plastic hoods until the plants had rooted.
(§3) The plants have been cultivated due to their individual requirements at 10-25° C. and 20-35° C.
(§4) The plants were irrigated due to their necessity.
(§5) The racemic mixture (±)-2-exo-(2-Methylbenzyloxy)-1-methyl-4-isopropyl-7-oxabicyclo[2.2.1]heptane was used as herbicide A and formulated as emulsifiable concentrates with an active ingredient concentration of 50 g/l, 100 g/l or 750 g/l respectively.
(§6) Dimethenamid-P was used as emulsifiable concentrate (EC) formulation having an active ingredient concentration of 720 g/l.
(§7) In the following experiments, the herbicidal activity for the individual herbicidal compositions (solo and mixture applications) was assessed 20 days after treatment (DAT).
(§8) The evaluation for the damage on undesired weeds caused by the chemical compositions was carried out using a scale from 0 to 100%, compared to the untreated control plants. Here, 0 means no damage and 100 means complete destruction of the plants.
(§9) E=X+Y−(X·Y/100) where X=effect in percent using herbicide A at an application rate a; • Y=effect in percent using herbicide B at application rate b; • E=expected effect (in %) of herbicide A+herbicide B at application rates a+b.
(§10) The value E corresponds to the effect (plant damage or injury) which is to be expected if the activity of the individual compounds is additive. If the observed effect is higher than the value E calculated according to the Colby equation, a synergistic effect is present.

GALAP = assay: Greenhouse preemergence herbicidal activity; type: in vivo, Galium aparine
Procedure: as §1, §2, §3, §4, §5, §6, §7, §8, §9, §10

ABUTH = assay: Greenhouse preemergence herbicidal activity; type: in vivo, Abutilon theophrasti
Procedure: as §1, §2, §3, §4, §5, §6, §7, §8, §9, §10

ANTAR [1] = assay: Greenhouse postemergence herbicidal activity; type: in vivo, Anthemis arvensis
Procedure: as §1
(§11) For the post emergence treatment, the plants were first grown to the 2 leaf station (GS 12). Here, the herbicidal compositions were suspended or emulsified in water as distribution medium and sprayed using finely distributing nozzles.
as §3, §4, §5, §6, §7, §8, §9, §10

AMBEL = assay: Greenhouse preemergence herbicidal activity; type: in vivo, Ambrosia elatior
Procedure: as §1, §2, §3, §4, §5, §6
(§12) In the following experiments, the herbicidal activity for the individual herbicidal compositions (solo and mixture applications) was assessed 20 days after treatment (DAT). […]
as §10

AVEFA = assay: Greenhouse preemergence herbicidal activity; type: in vivo, Avena fatua
Procedure: as §1, §2, §3, §4, §5, §6, §7, §8, §9, §10

SORHA = assay: Greenhouse preemergence herbicidal activity; type: in vivo, Sorghum halepense
Procedure: as §1, §2, §3, §4, §5, §6, §7, §8, §9, §10

ANTAR [2] = assay: Greenhouse preemergence herbicidal activity; type: in vivo, Anthemis arvensis
Procedure: as §1, §2, §3, §4, §5, §6, §7, §8, §9, §10

ALOMY = assay: Greenhouse preemergence herbicidal activity; type: in vivo, Alopecurus myosuroides
Procedure: as §1, §2, §3, §4, §5, §6, §12, §10

BRSNW = assay: Greenhouse postemergence herbicidal activity; type: in vivo, Brassica napus
Procedure: as §1, §11, §3, §4, §5, §6, §12, §10

SSYOF = assay: Greenhouse preemergence herbicidal activity; type: in vivo, Sisymbrium officinale
Procedure: as §1, §2, §3, §4, §5, §6, §7, §8, §9, §10

HELAN = assay: Greenhouse preemergence herbicidal activity; type: in vivo, Helianthus annuus
Procedure: as §1, §2, §3, §4, §5, §6, §12, §10

POLCO = assay: Greenhouse preemergence herbicidal activity; type: in vivo, Polygonum convolvulus
Procedure: as §1, §2, §3, §4, §5, §6, §7, §8, §9, §10

[3] = solo Dimethenamid-P 125 g ai/ha
[4] = solo Dimethenamid-P 250 g ai/ha
[5] = solo Dimethenamid-P 500 g ai/ha
[6] = solo Dimethenamid-P 62.5 g ai/ha
[7] = solo Dimethenamid-P 150 g ai/ha
[8] = solo Dimethenamid-P 300 g ai/ha
[9] = solo Dimethenamid-P 37.5 g ai/ha

**Q.** Which herbicidal activity (THLAR; [3]) does the source give for `COC[C@H](C)N(C(=O)CCl)c1c(C)csc1C` [Dimethenamid-P, (S)-2-chloro-N-(2,4-dimethyl-3-thienyl)-N-(2-methoxy-1-methylethyl)acetamide] here?
**A.** 40%

**Q.** And the herbicidal activity (THLAR; [4])?
**A.** 70%

**Q.** And the herbicidal activity (THLAR; [5])?
**A.** 90%

**Q.** And the herbicidal activity (GALAP; [6])?
**A.** 20%

**Q.** What about the herbicidal activity (GALAP; [7]) of the same molecule?
**A.** 70%

**Q.** And the herbicidal activity (GALAP; [4])?
**A.** 75%

**Q.** What about the herbicidal activity (GALAP; [8]) of the same molecule?
**A.** 75%

**Q.** And the herbicidal activity (GALAP; [5])?
**A.** 80%

**Q.** And the herbicidal activity (ABUTH; [3])?
**A.** 10%

**Q.** What about the herbicidal activity (ABUTH; [4]) of the same molecule?
**A.** 25%

**Q.** And the herbicidal activity (ANTAR [1]; [9])?
**A.** 0%

**Q.** What about the herbicidal activity (ANTAR [1]; solo Dimethenamid-P 75 g ai/ha) of the same molecule?
**A.** 0%

**Q.** What about the herbicidal activity (ANTAR [1]; [7]) of the same molecule?
**A.** 35%

**Q.** And the herbicidal activity (ANTAR [1]; [8])?
**A.** 45%

**Q.** And the herbicidal activity (AMBEL; [3])?
**A.** 35%

**Q.** And the herbicidal activity (AVEFA; [9])?
**A.** 0%

**Q.** And the herbicidal activity (AVEFA; [6])?
**A.** 0%

**Q.** And the herbicidal activity (AVEFA; solo Dimethenamid-P 75 g ai/ha)?
**A.** 0%

**Q.** What about the herbicidal activity (AVEFA; [3]) of the same molecule?
**A.** 25%

**Q.** And the herbicidal activity (SORHA; [9])?
**A.** 30%

**Q.** What about the herbicidal activity (SORHA; solo Dimethenamid-P 75 g ai/ha) of the same molecule?
**A.** 70%

**Q.** And the herbicidal activity (ANTAR [2]; [9])?
**A.** 20%

**Q.** And the herbicidal activity (ANTAR [2]; [6])?
**A.** 75%

**Q.** What about the herbicidal activity (ANTAR [2]; solo Dimethenamid-P 75 g ai/ha) of the same molecule?
**A.** 50%

**Q.** What about the herbicidal activity (ANTAR [2]; [3]) of the same molecule?
**A.** 95%

**Q.** And the herbicidal activity (ANTAR [2]; [7])?
**A.** 85%

**Q.** And the herbicidal activity (ANTAR [2]; [4])?
**A.** 98%

**Q.** What about the herbicidal activity (ANTAR [2]; [8]) of the same molecule?
**A.** 90%

**Q.** What about the herbicidal activity (ALOMY; [6]) of the same molecule?
**A.** 25%

**Q.** And the herbicidal activity (BRSNW; solo Dimethenamid-P 75 g ai/ha)?
**A.** 20%

**Q.** What about the herbicidal activity (SSYOF; [6]) of the same molecule?
**A.** 0%

**Q.** What about the herbicidal activity (SSYOF; [3]) of the same molecule?
**A.** 70%

**Q.** What about the herbicidal activity (SSYOF; [4]) of the same molecule?
**A.** 98%

**Q.** And the herbicidal activity (HELAN; [5])?
**A.** 30%

**Q.** What about the herbicidal activity (POLCO; [9]) of the same molecule?
**A.** 0%

**Q.** What about the herbicidal activity (POLCO; [6]) of the same molecule?
**A.** 0%

**Q.** What about the herbicidal activity (POLCO; solo Dimethenamid-P 75 g ai/ha) of the same molecule?
**A.** 0%

**Q.** And the herbicidal activity (POLCO; [3])?
**A.** 0%

**Q.** And the herbicidal activity (POLCO; [4])?
**A.** 30%

**Q.** And the herbicidal activity (POLCO; [5])?
**A.** 60%

**Q.** For “(±)-2-exo-(2-Methylbenzyloxy)-1-methyl-4-isopropyl-7-oxabicyclo[2.2.1]heptane [herbicide A]”, which herbicidal activity (THLAR; solo herbicide A 62.5 g ai/ha) is on record?
**A.** 65%

**Q.** What about the herbicidal activity (THLAR; solo herbicide A 125 g ai/ha) of the same molecule?
**A.** 75%

**Q.** What about the herbicidal activity (THLAR; solo herbicide A 500 g ai/ha) of the same molecule?
**A.** 90%

**Q.** And the herbicidal activity (GALAP; solo herbicide A 31.25 g ai/ha)?
**A.** 0%

**Q.** What about the herbicidal activity (GALAP; solo herbicide A 125 g ai/ha) of the same molecule?
**A.** 20%

**Q.** What about the herbicidal activity (GALAP; solo herbicide A 250 g ai/ha) of the same molecule?
**A.** 65%

**Q.** What about the herbicidal activity (GALAP; solo herbicide A 500 g ai/ha) of the same molecule?
**A.** 80%

**Q.** And the herbicidal activity (ABUTH; solo herbicide A 62.5 g ai/ha)?
**A.** 55%

**Q.** What about the herbicidal activity (ABUTH; solo herbicide A 125 g ai/ha) of the same molecule?
**A.** 65%

**Q.** And the herbicidal activity (ANTAR [1]; solo herbicide A 62.5 g ai/ha)?
**A.** 0%

**Q.** What about the herbicidal activity (ANTAR [1]; solo herbicide A 125 g ai/ha) of the same molecule?
**A.** 0%

**Q.** What about the herbicidal activity (ANTAR [1]; solo herbicide A 250 g ai/ha) of the same molecule?
**A.** 40%

**Q.** What about the herbicidal activity (ANTAR [1]; solo herbicide A 500 g ai/ha) of the same molecule?
**A.** 65%

**Q.** And the herbicidal activity (AMBEL; solo herbicide A 62.5 g ai/ha)?
**A.** 0%

**Q.** And the herbicidal activity (AVEFA; solo herbicide A 31.25 g ai/ha)?
**A.** 0%

**Q.** And the herbicidal activity (AVEFA; solo herbicide A 125 g ai/ha)?
**A.** 50%

**Q.** And the herbicidal activity (SORHA; solo herbicide A 62.5 g ai/ha)?
**A.** 80%

**Q.** What about the herbicidal activity (SORHA; solo herbicide A 125 g ai/ha) of the same molecule?
**A.** 90%

**Q.** And the herbicidal activity (ANTAR [2]; solo herbicide A 31.25 g ai/ha)?
**A.** 0%

**Q.** What about the herbicidal activity (ANTAR [2]; solo herbicide A 250 g ai/ha) of the same molecule?
**A.** 40%

**Q.** What about the herbicidal activity (ANTAR [2]; solo herbicide A 500 g ai/ha) of the same molecule?
**A.** 65%

**Q.** What about the herbicidal activity (ALOMY; solo herbicide A 31.25 g ai/ha) of the same molecule?
**A.** 85%

**Q.** And the herbicidal activity (BRSNW; solo herbicide A 125 g ai/ha)?
**A.** 0%

**Q.** What about the herbicidal activity (SSYOF; solo herbicide A 31.25 g ai/ha) of the same molecule?
**A.** 0%

**Q.** What about the herbicidal activity (SSYOF; solo herbicide A 62.5 g ai/ha) of the same molecule?
**A.** 0%

**Q.** And the herbicidal activity (SSYOF; solo herbicide A 125 g ai/ha)?
**A.** 50%

**Q.** And the herbicidal activity (HELAN; solo herbicide A 125 g ai/ha)?
**A.** 0%

**Q.** What about the herbicidal activity (POLCO; solo herbicide A 31.25 g ai/ha) of the same molecule?
**A.** 0%

**Q.** What about the herbicidal activity (POLCO; solo herbicide A 62.5 g ai/ha) of the same molecule?
**A.** 0%

**Q.** What about the herbicidal activity (POLCO; solo herbicide A 125 g ai/ha) of the same molecule?
**A.** 0%

**Q.** What about the herbicidal activity (POLCO; solo herbicide A 250 g ai/ha) of the same molecule?
**A.** 0%
